Molecular target: T1, VIM-2 (Escherichia coli, UniProt Q5U7L7)
T1 construct: made in house; host or cells: E. coli BL21(DE3) derivative, pET-9a
Test: Isothermal titration calorimetry of binding to VIM-2
Procedure: ITC titrations were performed on a MicroCal ITC200 (GE-Malvern) equipped with a 200 µL Hastelloy sample cell and an automated 40 µL glass syringe rotating at 1000 rpm. VIM-2 in 10 mM Hepes-NaOH, 0.15 M NaCl, 50 µM ZnSO4, pH 7.5 was diluted to the desired concentration with the same buffer and was brought to a DMSO concentration identical to that of the injected compound. The tested compound was solubilized in DMSO at 20 mM concentration and was diluted to 200 µM with the enzyme buffer, resulting in a final DMSO concentration of 1%.
In a standard experiment, VIM-2 (19 µM) was titrated by one initiating injection (0.5 µL) followed by 19 injections (2 µL) of compound (200 µM) at an interval of 150 s. Dilution heat of compound injections into buffer, at the corresponding DMSO concentration, were subtracted from raw data. The data so obtained were fitted via nonlinear least squares minimization method to determine binding stoichiometry (n), association constant (Ka), and change in enthalpy of binding (∆H°b) using ORIGIN 7 software v.7 (OriginLab, Northampton, MA, USA). In the fitting procedure, the compound concentration was lowered in order to provide n around 1 and to take compound solubility into account under ITC conditions. The Gibbs free energy of binding, ∆G°b, was calculated from Ka (∆G°b = −RT ln Ka) and the entropic term, T∆S°b, was derived from the Gibbs–Helmholtz equation using the experimental ∆H°b value (∆G°b = ∆H°b − T∆S°b).

## O=C(O)c1ccccc1CNn1c(-c2ccccc2)n[nH]c1=S [Compound 1]
  Kd: 358 nM
25 °C
  Ka: 2.8 ± 0.4 µM⁻¹
  n, stoichiometry of binding: 1.01 ± 0.01
  ∆H°b: -6.3 ± 0.1 kcal/mol
25 °C, calculated from Ka
  ∆G°b: -8.8 kcal/mol
25 °C, from Gibbs–Helmholtz equation
  T∆S°b: 2.5 kcal/mol
